# Measured values reported in the pKa sets of Baltruschat and Czodrowski (2020).
# Where a SMILES comes first, the peptide text is derived from it. [ ]: non-standard residue; d: D form. pGlu = O=C1CC[C@@H](C(=O)O)N1
# Conditions: acidic group
row,Compound,pKa
1,Cc1cc(O)cc(C)c1[N+](=O)[O-],8.25
2,O=[N+]([O-])c1ccc(NS(=O)(=O)c2ccccc2)cc1,6.63
3,O=C(O)/C=C/c1ccc2c(c1)OCO2,4.6
4,C=C(OC)C(=O)O,3.38
5,O=C(N/N=C/c1ccccc1[O-])c1ccncc1,11.3
6,O=C(O)CC(c1ccccc1)c1ccccc1Cl (centres undefined),4.7
7,Cn1c(=O)[nH]c(=O)c2[nH]cnc21,8.49
8,CC(=O)NS(=O)(=O)c1ccccc1C(=O)O,3.1
9,S=c1[nH]c2ccccc2[nH]1,10.2
10,O=C(O)Cc1nnnn1-c1ccccc1,3.1
11,O=P(O)(O)C([NH2+]Cc1cccc[nH+]1)c1ccccc1O (centres undefined),2.25
12,Clc1ccccc1-c1nnn[nH]1,3.69
13,Nn1cnnc1S,7.47
14,Oc1cncc2cccnc12,8.33
15,Sc1cccc2ccc[nH+]c12,2.05
16,O=CCCCC(=O)O,5.02
17,Cc1ccc(C(=S)Nc2ccc(Cl)cc2)cc1,10.8
18,CC#CC#CC(=O)O,1.94
19,Cc1ccc([N+](C)(C)O)cc1,4.32
20,CC(C)CS(=O)O,2.75
21,NC(=O)C1CN2CCC1CC2 (centres undefined),9.74
22,O=C(O)C(c1ccc(-c2ccccc2)cc1)C1(O)CCCCC1 (centres undefined),3.59
23,O=C(O)c1cc(-c2ccccc2)n[nH+]c1NCC[NH+]1CCOCC1,1.1

row,Compound,pKa
1,CC(Br)[N+](=O)[O-] (centres undefined),7.17
2,O=C([O-])c1cccc([N+](=O)[O-])c1O,10.3
3,O=c1ccccc(O)c1,5.4
4,Cc1ccc(C(=O)N(C)O)cc1,8.5
5,NCc1ccc(S(N)(=O)=O)cc1,10.2
6,CCO[C@H]1C[C@H]1C(=O)O,4.83
7,CCCCCCC(=O)O,4.86
8,S=C(S)N1CCCC1,2.97
9,O=C(O)[C@@H]1CCC[NH2+]1,1.94
10,CONC(=O)c1ccccc1,8.89
11,OCc1ccc(O)cc1,9.82
12,CC(C(N)=O)S(N)(=O)=O (centres undefined),9.86
13,CCC#CC#CC(=O)O,1.91
14,O=[PH](O)C([NH2+]Cc1cccc[nH+]1)c1ccccc1O (centres undefined),2.4
15,Cc1ccccc1OCC(=O)O,3.17
16,Nc1c(C(=O)O)[nH+]cn1[C@H]1O[C@@H](CO)[C@H](O)[C@@H]1O,2.9
17,O=Cc1ccccc1O,8.36
18,NCCNC(=O)c1ccccc1,9.13
19,C/C(=N/O)c1ccccc1,11.5
20,CNC(=S)OC(C)C,11.6
21,CCCCS,10.8
22,NNC(=O)CS,8.05
23,Cc1ccccc1B(O)O,9.74

row,Compound,pKa
1,C[n+]1cccc(CC(=O)c2ccccc2)c1,11
2,C[C@H](NC(=O)[C@@H]1CCC(=O)N1)C(=O)O ([pGlu]-Ala-OH),3.6
3,CC1=CC(=Nc2ccc(O)cc2)C=C(C)C1=O,8.9
4,O=C(O)[C@@H]1O[C@H](Oc2ccc(-c3ccccc3)cc2)[C@@H](O)[C@H](O)[C@H]1O,3.1
5,Oc1cccn[nH+]1,-1.8
6,CCCCCCc1c(-c2ccccc2)n[nH]c1O,8.6
7,Cc1cc(=O)n2ncnc2[nH]1,6.19
8,O=C1OC2C3CC4C2C4(C(=O)O)C13Br (centres undefined),3.5
9,CN1C(=O)C(C)(C)NC1=S,10.8
10,On1nnc2ccccc21,4.6
11,CC(=O)c1ccc(C(=O)O)cc1,3.72
12,Cn1cnc2nc([O-])nc(O)c21,10.6
13,CCC1(C)OC(=O)NC1=O (centres undefined),6
14,CC(=O)[n+]1cccc(C#N)c1,1.62
15,S=C(Nc1ccccc1)c1ccc(Cl)cc1,10.8
16,COc1ccccc1/C=N/O,10.9
17,OCC(Cl)Cl,13.2
18,C[N+](C)(C)CCc1ccc(O)cc1,9.8
19,C/C(=N\O)C(=O)[N-]O,11
20,[S-]c1nc(S)c2[nH]cnc2n1,9.97
21,c1ccc(-c2nn[nH]n2)cc1,4.53
22,CC(O)c1cccc(O)c1CO (centres undefined),9.9
23,[NH3+]c1ccccc1C(=O)O,2.08

row,Compound,pKa
1,CN(C)C(=S)SCC(=O)O,3.34
2,O=C([O-])[C@@H](NCC[NH2+][C@@H](C(=O)[O-])c1ccccc1[O-])c1ccccc1O,10.8
3,C/C=C/CC(=O)O,4.28
4,O=C([O-])C(CO)[NH2+]Cc1cc(Cl)ccc1O (centres undefined),7.95
5,Cc1ccc(C(=O)[O-])c(O)c1,13.8
6,CC(C)/C=C/C(=O)O,4.7
7,O=C(O)CC1NC(=O)c2ccccc2O1 (centres undefined),4.9
8,Clc1ncnc2nc[nH]c12,7.75
9,O=C(CC(=O)c1ccc([N+](=O)[O-])cc1)Nc1ccccc1,8.7
10,Cc1cc([N+](=O)[O-])ccc1O,7.1
11,CCC(=O)c1cc(C(=O)C(C)(C)C)n[nH]1,9.7
12,NC(=O)C#CC#C/C=C/C(=O)O,3.52
13,CC(=N\[O-])/C(C)=N/O,11.9
14,C[N+](C)(C)Cc1ccc(O)cc1,8.75
15,O=C([O-])C(CO)NCc1ccccc1O (centres undefined),10.4
16,O=C(O)[C@H](O)c1ccccc1[N+](=O)[O-],3.15
17,Oc1ccc(Br)cc1Br,7.77
18,CC1(C)S[C@H]2[C@@H](NC(=O)Cc3ccccc3)C(=O)N2[C@@H]1C(=O)O,2.76
19,CCCOc1ccc(O)cc1,10.2
20,CN(C)Cc1cc(OCc2ccccc2)ccc1O,11.5
21,O=C(O)c1cccc(O)c1,4.07

# Same assay, conditions: basic group
row,Compound,pKa
1,COC(=O)C[C@@H]1[C@@H](C(=O)[O-])NC[C@H]1C(C)O (some centres undefined),9.41
2,COCCNc1ccc(OC)cc1,5.02
3,Cc1cc(C)n(Cc2cc(C)n(C)n2)[nH+]1,0.6
4,Cc1cc(O)n(-c2nc(C)c(C)c([O-])n2)n1,10.3
5,O=C([O-])CN=C1CCCCC1,9.48
6,CC(C)SC(=N)c1ccccc1,8.04
7,COc1cc2c(cc1OC)C13CCN4C1CC1C(=CCOC5CC(=O)N2C3C51)[C@@H]4S(=O)(=O)[O-] (some centres undefined),3.12
8,OC[C@@H]1CCN2CC[C@H](O)[C@H]12,10.2
9,Cn1c(=O)[nH]c(=O)c2[nH]cnc21,0.78
10,NCC(=O)NN,7.69
11,CN(CO)c1ccc(Cl)cc1,3.02
12,CCCCCC/N=C/c1c(C)cnc(C)c1O,6.22
13,NC(=O)CCc1cccnc1,5.21
14,CC(=O)NNC1CCN(C)CC1,8.7
15,c1cc(N2CCCC2)c2c(N3CCCC3)cccc2c1,9.97
16,CC(C)N1C[Si](C)(C)O[Si](C)(C)C1,10
17,Cn1nccc1N,4.23
18,CCCc1ncc[nH]1,8.02
19,NC(=O)C(N)Cc1c[nH]c2ccccc12 (centres undefined),7.55
20,Nc1ccccc1F,2.96
21,Cc1cc[nH+]c([O-])n1,3.15

row,Compound,pKa
1,C[C@]1([NH3+])C[C@@H]1N,5.83
2,N/C(CC[NH2+]c1ccccc1)=N\O,2.45
3,c1ccc(-c2ccco2)nc1,4.18
4,C=C1CC1C[C@H](N)C(=O)[O-] (some centres undefined),9.37
5,Cc1c(Cn2ccnc2)sc2cc(C(=O)[O-])ccc12,6.04
6,C[NH+](C)CCN1C=Nc2cccc3cccc1c23,4.64
7,COC(=O)C1CCCN(C)C1 (centres undefined),8.45
8,C[NH2+]CCN(C)CC[NH3+],3.38
9,NCc1ccc(S(N)(=O)=O)cc1,8.35
10,C[n+]1ccc(NN)c2ccccc21,2.61
11,Cc1cccc(CO)n1,5.2
12,O=Cc1cc(-c2ccccc2)nnc1NCC[NH+]1CCOCC1,2.6
13,c1ccc(-c2ccc(NCCN3CCOCC3)nn2)cc1,6.74
14,Nc1ccc(-c2cnc(-c3ccc(Cl)cc3)o2)cc1,3.52
15,c1cc2c(cn1)CCCC2,6.65
16,[NH3+]C(c1ncc[nH]1)c1ncc[nH]1,4.07
17,Cc1nc2cccc(N)c2n1C,6.66
18,C=C[C@]1(O)CN2CC[C@H]1C[C@H]2[C@H](O)c1cc([O-])[nH+]c2ccccc12,7.65
19,COc1ccc(CCN)cc1,9.79
20,O=C([O-])/C=C\c1c[nH]cn1,6.7
21,CCN1CC(O[Si](C)(C)C)C1,8.68

row,Compound,pKa
1,CN(CCN)CC[NH+](C)C,9.23
2,CCNCC#CCNCC,8.32
3,O=[N+]([O-])c1cc(CN2CCOCC2)c([O-])c2ccccc12,7.98
4,N[C@@H](CCCCN1C(=O)C[C@H](N)C1=O)C(=O)[O-],9.5
5,C[n+]1cccnc1[O-],2.5
6,O=C([O-])[C@@H]1CCCN1,10.6
7,O=[N+]([O-])c1ccc(O)c2ncccc12,2.88
8,CCSC(=O)c1cccc(C)c1,-4.77
9,O=C([O-])C(NCC[NH2+]C(C(=O)[O-])c1ccccc1O)c1ccccc1O (centres undefined),6.32
10,CNCc1ccc(C)cc1,9.93
11,O=C([O-])CC(c1ncc[nH]1)c1[nH]cc[nH+]1,4.62
12,CN(C)Cc1ccc(O)c(O)c1O,8.26
13,C(=C/c1ccncc1)/c1ccccc1,5.77
14,CCN(CC)c1nc(N)nc(N)n1,5.61
15,Cc1ccc2c(c1)sc(-c1ccc(N(C)C)cc1)[n+]2C,2.69
16,C(=C/c1nnnn1-c1ccccc1)/c1ccccc1,-2.81
17,COC(=O)C1CN2CCC1CC2 (centres undefined),9.4
18,CCOc1ccc(N)cc1,5.25
19,Nc1ccccc1[NH3+],1.3
20,O=[N+]([O-])c1cccc(C2NCCS2)c1 (centres undefined),4.63
21,CC(C)N1CCC(NN)CC1,9.65

row,Compound,pKa
1,CCN(CC)c1ccc(C)cc1,7.18
2,Cn1ccc(=O)c2ccccc21,2.36
3,N#CC(C#N)=NNc1ccc(C(=O)CCl)cc1,-0.76
4,CN(CC[NH3+])CC[NH+](C)C,3.19
5,NC(=O)CCCc1cccnc1,5.33
6,CC(O)CNC(C)(C)C (centres undefined),10
7,OCCc1cnc(P(c2[nH]c(CCO)c[nH+]2)c2[nH]c(CCO)c[nH+]2)[nH]1,5.75
8,C=CC(=O)OCCN(C)C,7.9
9,Nc1ccc2nc3ccccc3cc2c1,5.88
10,C(C[NH2+]CCc1nnn[n-]1)NCCc1nnn[n-]1,6.3
11,C1=C(c2ccco2)C2CCN1CC2,8.92
12,Cc1n[nH]c(C)c1Cl,2.23
13,C=CCN1CCCCC1,9.66
14,CSc1ccc(N)cc1I,3.44
15,Nc1ccc(Cl)cc1,3.96
16,C#CCNc1ccccc1,3.06
17,c1coc(CNCCNCc2ccco2)c1,8.61
18,O=C([O-])C(CO)NCc1ccccc1O (centres undefined),8.22
19,N=C(SCc1ccccc1)c1ccccc1,4.43
20,CC(C)(C(=O)[O-])c1c[nH]c(CO)n1,7.38
21,O=C(O)c1cccc(O)c1,-1.01
